# Test system: GMPPNP-loaded H-Ras or GTP-loaded K-Ras
# Assay: Fluorescence polarization competition assay with TAMRA-labeled probe R4007
# Type: binding, human
# Conditions: 120 nM Ras, 30 nM probe R4007, 60 minutes at room temperature; read-out: Probe displacement (nM IC50)
# Summary of the method: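 120 nM GMPPNP-loaded H-Ras or GTP-loaded K-Ras was preincubated with 30 nM TAMRA-labeled R4007 probe for 20 min at room temperature in Tris pH 7.5 buffer with MgCl2, EDTA and Triton X-100. Serially diluted competitor was then added for 60 min. Polarization was read at 535/595 nm, with Ki from a one-site Ki fit and IC50 from probe displacement.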
row,SMILES,IC50
1,"CCC[C@H](NC(C)=O)C(=O)N[C@H]1CSCc2cccc(c2)CSC[C@@H](C(=O)NCC(=O)NCC(=O)NCC(=O)N[C@@H](CS)C(=O)N[C@H](C(=O)N[C@H](C(=O)N[C@@H](CCSC)C(=O)O)[C@@H](C)CC)C(C)C)NC(=O)CN(C)C(=O)[C@H](Cc2ccc(F)cc2)N(C)C(=O)[C@H](Cc2ccc(O)cc2)NC(=O)[C@H](Cc2c[nH]c3ncccc23)NC(=O)[C@H](c2ccccc2)NC(=O)[C@H](C)N(C)C(=O)[C@H](Cc2c[nH]cn2)NC(=O)[C@H](CCCCN)NC(=O)[C@H](C(C)(C)C)NC(=O)[C@H](Cc2ccc(O)cc2)NC1=O (relative stereo) [Compound R4131, ACE-NVA-CYS*-TYR-TBG-LYS-HIS-NMA-PHG-7AW-TYR-MFF-SAR-CYS*-GLY-GLY-GLY-CYS-VAL-ILE-MET]",278 nM
2,"CCC[C@H](NC(C)=O)C(=O)N[C@H]1CSCc2cccc(c2)CSC[C@@H](C(N)=O)NC(=O)CN(C)C(=O)[C@H](Cc2ccc(F)cc2)N(C)C(=O)[C@H](Cc2ccc(O)cc2)NC(=O)[C@H](Cc2c[nH]c3ncccc23)NC(=O)[C@H](c2ccccc2)NC(=O)[C@H](CO)N(C)C(=O)[C@H](Cc2c[nH]cn2)NC(=O)[C@H](CCCCN)NC(=O)[C@H](C(C)(C)C)NC(=O)[C@H](Cc2ccc(O)cc2)NC1=O (relative stereo) [Compound R4132, ACE-NVA-CYS*-TYR-TBG-LYS-HIS-NMS-PHG-SA7AW-TYR-MFF-R-CYS*-NH2]",281 nM
3,"C=CC(=O)NCCCC[C@H]1C(=O)N[C@@H](c2ccccc2)C(=O)N[C@@H](Cc2c[nH]c3ncccc23)C(=O)N[C@@H](Cc2ccc(O)cc2)C(=O)N(C)[C@@H](Cc2ccc(F)cc2)C(=O)N(C)CC(=O)N[C@H](C(N)=O)CSCc2cccc(c2)CSC[C@H](NC(=O)[C@H](CCC)NC(C)=O)C(=O)N[C@@H](Cc2ccc(O)cc2)C(=O)N[C@@H](C(C)(C)C)C(=O)N[C@@H](C)C(=O)N[C@@H](Cc2c[nH]cn2)C(=O)N1C (relative stereo) [Compound R4133, ACE-NVA-CYS*-TYR-TBG-ALA-HIS-MKAC-PHG-7AW-TYR-MFF-SAR-CYS*-NH2]",342 nM
4,"CCC[C@H](NC(C)=O)C(=O)N[C@H]1CSCc2cccc(c2)CSC[C@@H](C(N)=O)NC(=O)CN(C)C(=O)[C@H](Cc2ccc(F)cc2)N(C)C(=O)[C@H](Cc2ccc(O)cc2)NC(=O)[C@H](Cc2c[nH]c3ncccc23)NC(=O)[C@H](c2ccccc2)NC(=O)[C@H](C)N(C)C(=O)[C@H](Cc2c[nH]cn2)NC(=O)[C@H](CCCCNC(=O)c2ccc(N(C)C)cc2)NC(=O)[C@H](C(C)(C)C)NC(=O)[C@H](Cc2ccc(O)cc2)NC1=O (relative stereo) [Compound R4134, ACE-NVA-CYS*-TYR-TBG-DMABZK1-HIS-NMA-PHG-7AW-TYR-MFF-SAR-CYS*-NH2]",346 nM
5,"CCC[C@H](NC(C)=O)C(=O)N[C@H]1CSCc2cccc(c2)CSC[C@@H](C(=O)O)NC(=O)CN(C)C(=O)[C@H](Cc2ccc(F)cc2)N(C)C(=O)[C@H](Cc2ccc(O)cc2)NC(=O)[C@H](Cc2c[nH]c3ncccc23)NC(=O)[C@H](c2ccccc2)NC(=O)[C@H](C)N(C)C(=O)[C@H](Cc2c[nH]cn2)NC(=O)[C@H](CCCCNC(CC(C)C)=C2C(=O)CC(C)(C)CC2=O)NC(=O)[C@H](C(C)(C)C)NC(=O)[C@H](Cc2ccc(O)cc2)NC1=O (relative stereo) [Compound R4135, ACE-NVA-CYS*-TYR-TBG-LYS-(DDE)-HIS-NMA-PHG-7AW-TYR-MFF-SAR-CYS*]",364 nM
6,"C=CC(=O)NC[C@@H]1NC(=O)[C@H](C)NC(=O)[C@H](C(C)(C)C)NC(=O)[C@H](Cc2ccc(O)cc2)NC(=O)[C@@H](NC(=O)[C@H](CCC)NC(C)=O)CSCc2cccc(c2)CSC[C@@H](C(N)=O)NC(=O)CN(C)C(=O)[C@H](Cc2ccc(F)cc2)N(C)C(=O)[C@H](Cc2ccc(O)cc2)NC(=O)[C@H](Cc2c[nH]c3ncccc23)NC(=O)[C@H](c2ccccc2)NC(=O)[C@H](C)N(C)C1=O (relative stereo) [Compound R4136, ACE-NVA-CYS*-TYR-TBG-ALA-DABAC2-NMA-PHG-7AW-TYR-MFF-SAR-CYS*-NH2]",392 nM
7,"CCC[C@H](NC(=O)CCCC(=O)O)C(=O)N[C@H]1CSCc2cccc(c2)CSC[C@@H](C(N)=O)NC(=O)CN(C)C(=O)[C@H](Cc2ccc(F)cc2)N(C)C(=O)[C@H](Cc2ccc(O)cc2)NC(=O)[C@H](Cc2c[nH]c3ncccc23)NC(=O)[C@H](c2ccccc2)NC(=O)[C@H](C)N(C)C(=O)[C@H](Cc2c[nH]cn2)NC(=O)[C@H](CCCCNC(CC(C)C)=C2C(=O)CC(C)(C)CC2=O)NC(=O)[C@H](C(C)(C)C)NC(=O)[C@H](Cc2ccc(O)cc2)NC1=O (relative stereo) [Compound R4138, GLA-NVA-CYS*-TYR-TBG-LYS-(DDE)-HIS-NMA-PHG-7AW-TYR-MFF-SAR-CYS*-NH2]",461 nM

# Further lines, results first:
row,IC50,SMILES
1,608 nM,"CCC[C@H](NC(C)=O)C(=O)N[C@H]1CSCc2cccc(c2)CSC[C@@H](C(N)=O)NC(=O)CN(C)C(=O)[C@H](Cc2ccc(F)cc2)N(C)C(=O)[C@H](Cc2ccc(O)cc2)NC(=O)[C@H](Cc2c[nH]c3ncccc23)NC(=O)[C@H](c2ccccc2)NC(=O)[C@H](C)N(C)C(=O)[C@H](CCN)NC(=O)[C@H](C)NC(=O)[C@H](C(C)(C)C)NC(=O)[C@H](Cc2ccc(O)cc2)NC1=O (relative stereo) [Compound R4140, ACE-NVA-CYS*-TYR-TBG-ALA-DBA-NMA-PHG-7AW-TYR-MFF-SAR-CYS*-NH2]"
2,695 nM,"CCC[C@H](NC(C)=O)C(=O)N[C@H]1CSCc2cccc(c2)CSC[C@@H](C(N)=O)NC(=O)CN(C)C(=O)[C@H](Cc2ccc(F)cc2)N(C)C(=O)[C@H](Cc2ccc(O)cc2)NC(=O)[C@H](Cc2c[nH]c3ncccc23)NC(=O)[C@H](c2ccccc2)NC(=O)[C@H](C)N(C)C(=O)[C@H](CN)NC(=O)[C@H](C)NC(=O)[C@H](C(C)(C)C)NC(=O)[C@H](Cc2ccc(O)cc2)NC1=O (relative stereo) [Compound R4141, ACE-NVA-CYS*-TYR-TBG-ALA-DAP-NMA-PHG-7AW-TYR-MFF-SAR-CYS*-NH2]"
3,1240 nM,"C=CC(=O)NCCC[C@H]1C(=O)N[C@@H](c2ccccc2)C(=O)N[C@@H](Cc2c[nH]c3ncccc23)C(=O)N[C@@H](Cc2ccc(O)cc2)C(=O)N(C)[C@@H](Cc2ccc(F)cc2)C(=O)N(C)CC(=O)N[C@H](C(N)=O)CSCc2cccc(c2)CSC[C@H](NC(=O)[C@H](CCC)NC(C)=O)C(=O)N[C@@H](Cc2ccc(O)cc2)C(=O)N[C@@H](C(C)(C)C)C(=O)N[C@@H](C)C(=O)N[C@@H](Cc2c[nH]cn2)C(=O)N1C (relative stereo) [Compound R4142, ACE-NVA-CYS*-TYR-TBG-ALA-HIS-MORAC-PHG-7AW-TYR-MFF-SAR-CYS*-NH2]"
4,1640 nM,"CCC[C@H](NC(C)=O)C(=O)N[C@H]1CSCc2cccc(c2)CSC[C@@H](C(=O)NCC(=O)NCC(=O)NCC(=O)N[C@@H](CS)C(=O)N[C@H](C(=O)N[C@H](C(=O)N[C@@H](CCSC)C(=O)O)[C@@H](C)CC)C(C)C)NC(=O)CN(C)C(=O)[C@H](C)N(C)C(=O)[C@H](Cc2ccc(O)cc2)NC(=O)[C@H](Cc2c[nH]c3ncccc23)NC(=O)[C@H](C)NC(=O)[C@H](C)N(C)C(=O)[C@H](Cc2c[nH]cn2)NC(=O)[C@H](CCCCN)NC(=O)[C@H](C(C)(C)C)NC(=O)[C@H](Cc2ccc(O)cc2)NC1=O (relative stereo) [Compound R4143, ACE-NVA-CYS*-TYR-TBG-LYS-HIS-NMA-ALA-7AW-TYR-NMA-SAR-CYS*-GLY-GLY-GLY-CYS-VAL-ILE-MET]"
5,1960 nM,"CCC[C@H](NC(C)=O)C(=O)N[C@H]1CSCc2cccc(c2)CSC[C@@H](C(N)=O)NC(=O)CN(C)C(=O)[C@H](Cc2ccc(F)cc2)N(C)C(=O)[C@H](Cc2ccc(O)cc2)NC(=O)[C@H](Cc2c[nH]c3ncccc23)NC(=O)[C@H](c2ccccc2)NC(=O)[C@H](C)N(C)C(=O)[C@H]2CCCN2C(=O)[C@H](CCCCN)NC(=O)[C@H](C(C)(C)C)NC(=O)[C@H](Cc2ccc(O)cc2)NC1=O (relative stereo) [Compound R4144, ACE-NVA-CYS*-TYR-TBG-LYS-DPRO-NMA-PHG-7AW-TYR-MFF-SAR-CYS*-NH2]"
6,2800 nM,"C#CC[C@@H]1NC(=O)CN(C)C(=O)[C@H](Cc2ccc(F)cc2)N(C)C(=O)[C@H](Cc2ccc(O)cc2)NC(=O)[C@H](Cc2c[nH]c3ncccc23)NC(=O)[C@H](c2ccccc2)NC(=O)[C@H](C)N(C)C(=O)[C@H](Cc2c[nH]cn2)NC(=O)[C@H](CCCCN)NC(=O)[C@H](C(C)(C)C)NC(=O)[C@H](Cc2ccc(O)cc2)NC1=O (relative stereo) [Compound R4145, TYR*-TBG-LYS-HIS-NMA-PHG-7AW-TYR-MFF-SAR-PRG*]"
7,3390 nM,"C=CC(=O)NCC[C@@H]1NC(=O)[C@H](C)NC(=O)[C@H](C(C)(C)C)NC(=O)[C@H](Cc2ccc(O)cc2)NC(=O)[C@@H](NC(=O)[C@H](CCC)NC(C)=O)CSCc2cccc(c2)CSC[C@@H](C(N)=O)NC(=O)CN(C)C(=O)[C@H](Cc2ccc(F)cc2)N(C)C(=O)[C@H](Cc2ccc(O)cc2)NC(=O)[C@H](Cc2c[nH]c3ncccc23)NC(=O)[C@H](c2ccccc2)NC(=O)[C@H](C)N(C)C1=O (relative stereo) [Compound R4146, ACE-NVA-CYS*-TYR-TBG-ALA-DABAC1-NMA-PHG-7AW-TYR-MFF-SAR-CYS*-NH2]"
8,6260 nM,"CCC[C@H](NC(C)=O)C(=O)N[C@H]1CSCc2cccc(c2)CSC[C@@H](C(N)=O)NC(=O)CN(C)C(=O)[C@H](Cc2ccc(F)cc2)N(C)C(=O)[C@H](Cc2ccc(O)cc2)NC(=O)[C@H](Cc2c[nH]c3ncccc23)NC(=O)[C@H](C2CCCCC2)NC(=O)[C@H](C)N(C)C(=O)[C@H](Cc2c[nH]cn2)NC(=O)[C@H](CCCCN)NC(=O)[C@H](C(C)(C)C)NC(=O)[C@H](Cc2ccc(O)cc2)NC1=O (relative stereo) [Compound R4149, ACE-NVA-CYS*-TYR-TBG-LYS-HIS-NMA-CHG-7AW-TYR-MFF-SAR-CYS*-NH2]"
9,28300 nM,"CCC[C@H](NC(C)=O)C(=O)N[C@H]1CSCc2cccc(c2)CSC[C@@H](C(N)=O)NC(=O)CN(C)C(=O)[C@H](Cc2ccc(F)cc2)N(C)C(=O)[C@H](Cc2ccc(O)cc2)NC(=O)[C@H](Cc2c[nH]c3ncccc23)NC(=O)[C@H](c2ccccc2)NC(=O)[C@H](C)N(C)C(=O)[C@H](Cc2c[nH]cn2)NC(=O)[C@H](CCCCN)NC(=O)[C@H](C(C)(C)C)NC(=O)[C@H](C)NC1=O (relative stereo) [Compound R4152, ACE-NVA-CYS*-ALA-TBG-LYS-HIS-NMA-PHG-7AW-TYR-MFF-SAR-CYS*-NH2]"

# — patent US10954287B2, “Ras binding peptides and methods of use” (Ra Pharmaceuticals, Inc., priority 2016, dated 2021)
